According to PubChem BioAssay (NCI):
Several values for one entry are separate records, joined by “and”; a condition that tells them apart may be missing. Identical values can stand only once.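 Method: 48-hour compound exposure of cells in 96-well plates, five concentrations, linear interpolation of endpoints. Here, GI50 denotes the concentration required for 50% inhibition of growth. TGI is the concentration that stops growth completely.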

Experiments:
Test in all cases: NCI anticancer screen, dose series, 48 h
[1] = system: 786-0 renal
[2] = system: A498 renal
[3] = system: A549 NSCLC
[4] = system: ACHN renal
[5] = system: BT-549 breast
[6] = system: CAKI-1 renal
[7] = system: CCRF-CEM leukemia
[8] = system: COLO 205 colon
[9] = system: DU-145 prostate
[10] = system: EKVX NSCLC
[11] = system: HCC-2998 colon
[12] = system: HCT-116 colon
[13] = system: HCT-15 colon
[14] = system: HL-60(TB) leukemia
[15] = system: HOP-62 NSCLC
[16] = system: HOP-92 NSCLC
[17] = system: HS 578T breast
[18] = system: HT29 colon
[19] = system: IGROV1 ovarian
[20] = system: K-562 leukemia
[21] = system: KM12 colon
[22] = system: LOX IMVI melanoma
[23] = system: M14 melanoma
[24] = system: MALME-3M melanoma
[25] = system: MCF7 breast
[26] = system: MDA-MB-231 breast
[27] = system: MDA-MB-435
[28] = system: MDA-N
[29] = system: MOLT-4 leukemia
[30] = system: NCI-H226 lung
[31] = system: NCI-H23 lung
[32] = system: NCI-H460 lung
[33] = system: NCI-H522 lung
[34] = system: NCI/ADR-RES ovarian
[35] = system: OVCAR-3 ovarian
[36] = system: OVCAR-4 ovarian
[37] = system: OVCAR-5 ovarian
[38] = system: OVCAR-8 ovarian
[39] = system: PC-3 prostate
[40] = system: RPMI-8226 leukemia
[41] = system: RXF 393 renal
[42] = system: SF-268 CNS
[43] = system: SF-295 CNS
[44] = system: SF-539 CNS
[45] = system: SK-MEL-2 melanoma
[46] = system: SK-MEL-28 melanoma
[47] = system: SK-MEL-5 melanoma
[48] = system: SK-OV-3 ovarian
[49] = system: SN12C renal
[50] = system: SNB-19 CNS
[51] = system: SNB-75 CNS
[52] = system: SR leukemia
[53] = system: SW-620 colon
[54] = system: T-47D breast
[55] = system: TK-10 renal
[56] = system: U251 CNS
[57] = system: UACC-257 melanoma
[58] = system: UACC-62 melanoma
[59] = system: UO-31 renal

CCCCCCCCCCCCCCCCP(=O)(O)OP(=O)(O)OCC1OC(n2ccc(N)nc2=O)C(O)C1O (stereo unspecified)
TGI [1]: > 100 µM and 27.6 µM
TGI [2]: > 47.9 µM
TGI [3]: > 100 µM
TGI [4]: > 100 µM and 37.1 µM
GI50 [5]: > 100 µM and 24.3 µM
TGI [5]: > 100 µM
GI50 [6]: 75.8 µM and 11.9 µM
TGI [6]: > 100 µM
TGI [7]: > 100 µM and 21.4 µM
GI50 [8]: 54.7 µM and 19 µM
TGI [8]: > 100 µM
TGI [9]: > 100 µM
TGI [10]: > 100 µM
GI50 [11]: 99.7 µM and 17 µM
TGI [11]: > 100 µM and 91.2 µM
TGI [12]: > 100 µM and 37.4 µM
GI50 [13]: 97.5 µM and 19.3 µM
TGI [13]: > 100 µM
TGI [14]: > 100 µM
GI50 [15]: 31.5 µM and 4.41 µM
TGI [15]: 97.3 µM and 44.6 µM
GI50 [16]: 65.3 µM and 17.6 µM
TGI [16]: > 100 µM and 67.4 µM
GI50 [17]: 83.2 µM and 29.2 µM
TGI [17]: > 100 µM
GI50 [18]: > 100 µM and 19.9 µM
TGI [18]: > 100 µM
GI50 [19]: 62.4 µM and 26 µM
TGI [19]: > 100 µM
TGI [20]: > 100 µM
TGI [21]: > 100 µM
TGI [22]: > 100 µM
TGI [23]: > 100 µM
GI50 [24]: > 100 µM and 14 µM
TGI [24]: > 100 µM and 50.3 µM
GI50 [25]: > 100 µM and 11.4 µM
TGI [25]: > 100 µM
GI50 [26]: > 100 µM and 37.9 µM
TGI [26]: > 100 µM
GI50 [27]: > 100 µM and 14.6 µM
TGI [27]: > 100 µM
GI50 [28]: > 100 µM and 40.4 µM
TGI [28]: > 100 µM
TGI [29]: > 100 µM and 22.7 µM
GI50 [30]: 64.5 µM and 21.6 µM
TGI [30]: > 100 µM and 78.9 µM
GI50 [31]: > 100 µM and 13.9 µM
TGI [31]: > 100 µM
TGI [32]: > 100 µM
GI50 [33]: > 100 µM and 24.6 µM
TGI [33]: > 100 µM
TGI [34]: > 100 µM
TGI [35]: > 100 µM
GI50 [36]: 91.4 µM and 43.8 µM
TGI [36]: > 100 µM
TGI [37]: 65.3 µM and > 64.4 µM
TGI [38]: > 100 µM and 51.3 µM
GI50 [39]: 37.8 µM and 10.8 µM
TGI [39]: > 100 µM
GI50 [40]: > 100 µM and 35.1 µM
TGI [40]: > 100 µM
GI50 [41]: 62.6 µM and 19.8 µM
TGI [41]: > 100 µM and 41.1 µM
GI50 [42]: 83.3 µM and 41.4 µM
TGI [42]: > 100 µM
GI50 [43]: 43 µM and 20.5 µM
TGI [43]: > 100 µM and 56.5 µM
TGI [44]: 36.3 µM and 88.6 µM
TGI [45]: > 100 µM
TGI [46]: > 100 µM
GI50 [47]: > 100 µM and 11.2 µM
TGI [47]: > 100 µM and 34.3 µM
GI50 [48]: > 100 µM and 11 µM
TGI [48]: > 100 µM and 72.6 µM
GI50 [49]: 54.5 µM and 9.05 µM
TGI [49]: > 100 µM
GI50 [50]: 70.5 µM and 16.1 µM
TGI [50]: > 100 µM
TGI [51]: 60.6 µM and 45.8 µM
TGI [52]: 23.7 µM
GI50 [53]: > 100 µM and 14.4 µM
TGI [53]: > 100 µM and 59 µM
TGI [54]: > 100 µM
TGI [55]: > 100 µM
GI50 [56]: 43.1 µM and 13.5 µM
TGI [56]: > 100 µM and 38 µM
GI50 [57]: > 100 µM and 41.8 µM
TGI [57]: > 100 µM
GI50 [58]: 44.5 µM and 9.63 µM
TGI [58]: > 100 µM
TGI [59]: > 100 µM and 28 µM
